Where two headings read alike, the source gives them in different places.
Columns and labels:
ONGHEPA1 cells = experiment: TGF-β-induced fibrosis of ONGHEPA1 cells (differentiation into myofibroblasts, phase contrast microscope); format: cell-based, rat; conditions: TGF-β 5 ng/ml, compound 50 μM in DMSO, 24 hours
Procedure: In order to examine the effect of a compound of the present invention against fibrosis, ONGHEPA1 cells (KCTC13086BP), which are mesenchymal stem cells (MSCs) derived from rat hepatic stellate cells (HSCs) and capable of proliferating indefinitely, were first used. Fibrosis of the ONGHEPA1 cells can be induced by a simple method of treating the cells with TGF-β (transforming growth factor beta) or PDGF (platelet-derived growth factor).
The ONGHEPA1 cells were seeded into medium, cultured for 24 hours, and then treated with TGF-β (5 ng/ml) to induce cell fibrosis. Alternatively, the cells were co-treated with TGF-β and the compound of the present invention (50 μM in DMSO) and cultured for 24 hours. Next, the degree of fibrosis of the cells, that is, the degree of differentiation into myofibroblasts, was examined with a phase contrast microscope (200×).
In this regard, the detailed experimental method followed the paper of Kim et al. (Han-Soo Kim, Jun-Hwan Kim, Ji Yong Lee, Young-Min Yoon, Ik-Hwan Kim, Ho-Sup Yoon, Byung-Soo Youn. Small molecule-mediated reprogramming of epithelial-mesenchymal transition thereby blocking fibrosis. bioRxiv preprint first posted online Feb. 16, 2017; doi: http://dx.doi.org/10.1101/106591).
The effects of the following comparative compounds against fibrosis were examined in the same manner as described in Experimental Example 1-1 above.

[1] = test system: Diseased human lung fibroblasts (DHLF); experiment: TGF-β-induced fibrosis of diseased human lung fibroblasts (DHLF); format: cell-based; conditions: TGF-β 5 ng/ml, compound 50 μM, 24, 48 or 72 hours
Procedure: Diseased human lung fibroblasts (DHLF) (Lonza, Swiss) isolated from lung fibrosis patients were seeded into medium, cultured for 24 hours, and then treated with TGF-β (5 ng/ml) to induce fibrosis. Alternatively, the fibroblasts were co-treated with TGF-β and the compound of the present invention (50 μM in DMSO) and cultured for 24, 48 or 72 hours. Next, the degree of differentiation into myofibroblasts was examined with a phase contrast microscope (200×).

A549 cell line = experiment: TGF-β-induced myofibroblast differentiation of A549 cell line; format: cell-based, human; conditions: A549, TGF-β 5 ng/ml, compound 25 or 50 μM, 24 or 48 hours
Procedure: The A549 cell line, which is a lung adenocarcinoma cell line used as a lung EMT-related study model, was seeded into medium, cultured for 24 hours, and then treated with TGF-β (5 ng/ml). Alternatively, the A549 cell line was co-treated with TGF-β and the compound of the present invention (25 or 50 μM in DMSO) and cultured for 24 or 48 hours. Next, the cells were examined with a phase contrast microscope (200×).

Snail = Snail expression in A549 cells by real-time PCR; format: cell-based, human; conditions: A549, TGF-β plus compound
Procedure: (§1) In addition, in order to examine whether the effect as described above would be attributable to the effect against EMT, the expression patterns of Snail and Vimentin, which are representative markers of EMT, in the cells of each test group, were analyzed by real-time PCR.

Vimentin = Vimentin expression in A549 cells by real-time PCR; format: cell-based, human; conditions: A549, TGF-β plus compound
Procedure: as §1

[2] = Metabolic stability in rat liver microsomes with NADPH; format: in vitro ADME; conditions: rat, rat liver microsomes
Procedure: (§2) The compound of the present invention was incubated with rat liver microsomes and NADPH, and then the rate of elimination of the compound was measured, thereby determining the intrinsic clearance value (CLint value) of the compound.

Rat liver microsomes = experiment: as above; format: in vitro ADME; conditions: Rat liver microsomes
Procedure: as §2

[3] = Pharmacokinetics in male SD rats (oral and i.v., various formulations); format: in vivo, rat
Procedure: To examine the pharmacokinetics of the compound after oral administration, rat models were used.
Male SD rats (weighed 250 to 300 g) were divided into several groups, each consisting of 3 rats, […], after which the amount of the compound present in the plasma was measured with the passage of time. […]
For effective formulation of the compound of the present invention, the pharmacokinetics of various formulations after oral administration were examined according to the same method as described in Experimental Example 2-4 above.

CYP2D6 [4] = molecular target: T1, CYP2D6 (Homo sapiens, UniProt P10635)
CYP2C9 [5] = molecular target: T2, CYP2C9 (Homo sapiens, UniProt P11712)
CYP3A4 = CYP3A4 (Homo sapiens, UniProt P08684); experiment: CYP450 inhibition, CYP3A4
CYP2D6 [6] = molecular target: T1, CYP2D6; experiment: CYP450 inhibition, CYP2D6
CYP2C9 [7] = molecular target: T2, CYP2C9; experiment: CYP450 inhibition, CYP2C9
[8] = male, SD, plasma, iv, 1 mg/kg, rat, 1 mpk i.v, Formulation Example 1
[9] = male, SD, rat, plasma, po, 10 mg/kg, 10 mpk po, Formulation Example 3, NMP/PEG400/Solutol HS/water vehicle
[10] = male, SD, rat, plasma, po, 10 mg/kg, 10 mpk po, Formulation Example 4, NMP/ethanol/PEG200/saline vehicle
[11] = male, SD, rat, plasma, po, 10 mg/kg, 10 mpk po, Formulation Example 5, in 30% HPCD aqueous solution
[12] = male, SD, rat, plasma, po, 200 mg/kg, 200 mpk po, Formulation Example 2

Chain of CYP3A4 (P08684 whole entry): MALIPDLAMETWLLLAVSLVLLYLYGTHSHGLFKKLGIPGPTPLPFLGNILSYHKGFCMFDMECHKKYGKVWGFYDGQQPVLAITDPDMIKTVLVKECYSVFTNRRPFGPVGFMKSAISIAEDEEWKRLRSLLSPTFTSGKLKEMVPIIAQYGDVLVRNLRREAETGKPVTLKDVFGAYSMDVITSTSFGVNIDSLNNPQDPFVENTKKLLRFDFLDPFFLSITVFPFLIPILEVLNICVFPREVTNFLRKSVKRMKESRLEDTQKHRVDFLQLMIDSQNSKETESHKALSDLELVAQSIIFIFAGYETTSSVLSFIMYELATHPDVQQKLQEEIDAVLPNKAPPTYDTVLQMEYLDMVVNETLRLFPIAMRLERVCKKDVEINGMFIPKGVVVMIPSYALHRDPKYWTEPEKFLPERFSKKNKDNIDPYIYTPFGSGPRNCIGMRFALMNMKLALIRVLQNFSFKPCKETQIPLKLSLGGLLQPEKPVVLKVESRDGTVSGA
T1 sequence (P10635 whole entry): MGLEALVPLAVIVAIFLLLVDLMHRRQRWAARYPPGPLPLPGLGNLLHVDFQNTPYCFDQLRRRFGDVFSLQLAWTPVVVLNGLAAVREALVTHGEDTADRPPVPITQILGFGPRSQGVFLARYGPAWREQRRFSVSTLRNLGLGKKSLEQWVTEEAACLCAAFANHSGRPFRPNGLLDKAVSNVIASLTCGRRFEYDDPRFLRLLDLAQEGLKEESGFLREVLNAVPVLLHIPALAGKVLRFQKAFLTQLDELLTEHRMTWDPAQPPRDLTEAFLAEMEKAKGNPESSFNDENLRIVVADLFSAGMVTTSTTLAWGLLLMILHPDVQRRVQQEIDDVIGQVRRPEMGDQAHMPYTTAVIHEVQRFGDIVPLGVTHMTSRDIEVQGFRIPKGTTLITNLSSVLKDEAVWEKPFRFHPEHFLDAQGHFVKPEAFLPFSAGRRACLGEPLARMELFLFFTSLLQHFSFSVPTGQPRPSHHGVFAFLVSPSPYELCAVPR
T2 sequence (P11712 whole entry): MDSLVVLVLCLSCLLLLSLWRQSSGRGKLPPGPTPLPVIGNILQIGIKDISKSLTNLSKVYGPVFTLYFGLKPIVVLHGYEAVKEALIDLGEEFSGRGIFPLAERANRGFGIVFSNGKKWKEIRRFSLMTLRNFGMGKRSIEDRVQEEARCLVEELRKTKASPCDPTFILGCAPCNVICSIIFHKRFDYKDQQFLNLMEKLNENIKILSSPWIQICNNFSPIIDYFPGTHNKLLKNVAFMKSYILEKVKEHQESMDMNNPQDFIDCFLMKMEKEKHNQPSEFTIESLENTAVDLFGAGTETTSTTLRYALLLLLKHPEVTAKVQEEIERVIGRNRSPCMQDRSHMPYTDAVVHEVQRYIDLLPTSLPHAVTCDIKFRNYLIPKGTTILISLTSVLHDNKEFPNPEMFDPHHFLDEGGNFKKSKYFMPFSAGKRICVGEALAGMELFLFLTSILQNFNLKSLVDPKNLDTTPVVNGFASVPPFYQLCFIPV

COc1ccc(-c2cc(=O)c3c(O)c(OC)c(OCCN4CCNC(=O)C4)cc3o2)cc1OC [Compound 1, 4-(2-((2-(3,4-dimethoxyphenyl)-5-hydroxy-6-methoxy-4-oxo-4H-chromen-7-yl)oxy)ethyl)piperazin-2-one]
degree of fibrosis of the cells (differentiation into myofibroblasts) (ONGHEPA1 cells): showed no fibrosis symptom
degree of differentiation into myofibroblasts (fibrosis symptom) [1]: showed little or no fibrosis symptom
growth of the cells [1]: inhibited
myofibroblast differentiation (A549 cell line): inhibited
expression of Snail (Snail): significantly inhibited
expression of Vimentin (Vimentin): significantly inhibited
microsomal CLint ([2]; read-out: CL int): 19.4 µL/min/mg
half-life ([2]; read-out: t½): 1.19 h
Clearance value (Rat liver microsomes): Moderate
metabolic stability (in words) (Rat liver microsomes; NADPH): metabolically stable such that it could be comparable with atenolol
plasma profile after oral administration (in words) ([3]; Formulation Example 2 compared to Formulation Example 3, FIG. 25): absorbed rapidly in vivo after oral administration and was maintained in the plasma for a long period of time
MRT inf ([3]; male, SD, plasma, 10 mg/kg, rat, 10 mpk po, Formulation Example 5): 3.2 ± 0.7 h
half-life ([3]; male, SD, plasma, 10 mg/kg, rat, 10 mpk po, Formulation Example 5, read-out: t1/2 (converted)): 1.9 ± 0.6 h
MRT inf ([3]; male, SD, plasma, 200 mg/kg, rat, 200 mpk po, Formulation Example 2): 1.7 ± 0.2 h
half-life ([3]; male, SD, plasma, 200 mg/kg, rat, 200 mpk po, Formulation Example 2, read-out: t½ (converted)): 1.5 ± 0.4 h
MRT inf [3, 8]: 0.4 h
Vd [3, 8]: 3.6 ± 0.25 L/kg
C0 ([3]; male, SD, plasma, iv, 1 mg/kg, rat, 1 mpk i.v, Formulation Example 1 (100% DMSO)): 506 ± 130 ng/mL
clearance ([3]; male, SD, plasma, iv, 1 mg/kg, rat, 1 mpk i.v, Formulation Example 1, read-out: CLP (converted)): 112 mL/min/kg
half-life ([3]; male, SD, plasma, iv, 1 mg/kg, rat, 1 mpk i.v, Formulation Example 1, read-out: t1/2 (converted)): 0.38 ± 0.03 h
AUC(0-inf) ([3]; male, SD, rat, plasma, iv, 1 mg/kg, 1 mpk i.v, Formulation Example 1): 149 ± 3 ng·h/mL
AUC(0-t) ([3]; male, SD, rat, plasma, iv, 1 mg/kg, rat, 1 mpk i.v, Formulation Example 1, read-out: AUC(0-t)): 147 ± 2.2 ng·h/mL
bioavailability ([3]; male, SD, rat, plasma, po, 10 mg/kg, 10 mpk po, Formulation Example 2): 1.4%
bioavailability ([3]; male, SD, rat, plasma, po, 10 mg/kg, 10 mpk po, Formulation Example 3): ~9%
AUC(0-inf) [3, 9]: 155 ± 7.5 ng·h/mL
Tmax [3, 9]: 0.25 ± 0.1 h
bioavailability ([3]; male, SD, rat, plasma, po, 10 mg/kg, 10 mpk po, Formulation Example 4): ~3%
AUC(0-inf) [3, 10]: 46.4 ± 14.1 ng·h/mL
Tmax [3, 10]: 0.25 h
bioavailability ([3]; male, SD, rat, plasma, po, 10 mg/kg, 10 mpk po, Formulation Example 5): ~7%
Cmax ([3]; male, SD, rat, plasma, po, 10 mg/kg, 10 mpk po, Formulation Example 5 (30% (w/v) HPCD aqueous solution)): 393 ± 299 ng/mL
AUC(0-inf) [3, 11]: 1080 ± 327 ng·h/mL
Tmax [3, 11]: 1.3 ± 0.6 h
Cmax ([3]; male, SD, rat, plasma, po, 10 mg/kg, rat, 10 mpk po, Formulation Example 2 (Tween80: 0.5% CMC 1:99)): 22.3 ± 8.9 ng/mL
Tmax ([3]; male, SD, rat, plasma, po, 10 mg/kg, rat, 10 mpk po, Formulation Example 2, in Tween80:0.5% CMC aqueous vehicle): 0.4 ± 0.1 h
AUC(0-t) ([3]; male, SD, rat, plasma, po, 10 mg/kg, rat, 10 mpk po, Formulation Example 2, in Tween80:0.5% CMC aqueous vehicle, read-out: AUC(0-t)): 20.4 ± 6.2 ng·h/mL
Cmax ([3]; male, SD, rat, plasma, po, 10 mg/kg, rat, 10 mpk po, Formulation Example 3 (NMP: PEG400: SOLUTOL HS: water 10:20:20:50)): 62.2 ± 37.5 ng/mL
AUC(0-t) ([3]; male, SD, rat, plasma, po, 10 mg/kg, rat, 10 mpk po, Formulation Example 3, NMP/PEG400/Solutol HS/water vehicle, read-out: AUC(0-t)): 126 ± 19.1 ng·h/mL
Cmax ([3]; male, SD, rat, plasma, po, 10 mg/kg, rat, 10 mpk po, Formulation Example 4 (NMP: ethanol: PEG200: normal saline 5:10:30:55)): 46.7 ± 8.8 ng/mL
AUC(0-t) ([3]; male, SD, rat, plasma, po, 10 mg/kg, rat, 10 mpk po, Formulation Example 4, NMP/ethanol/PEG200/saline vehicle, read-out: AUC(0-t)): 42.5 ± 16 ng·h/mL
AUC(0-t) ([3]; male, SD, rat, plasma, po, 10 mg/kg, rat, 10 mpk po, Formulation Example 5, in 30% HPCD aqueous solution, read-out: AUC(0-t)): 1000 ± 314 ng·h/mL
AUC(0-inf) [3, 12]: 426 ± 67.7 ng·h/mL
Tmax [3, 12]: 1 h
bioavailability [3, 12]: 1.4%
Cmax ([3]; male, SD, rat, plasma, po, 200 mg/kg, rat, 200 mpk po, Formulation Example 2 (Tween80: 0.5% CMC 1:99)): 261 ± 41.4 ng/mL
AUC(0-t) ([3]; male, SD, rat, plasma, po, 200 mg/kg, rat, 200 mpk po, Formulation Example 2, read-out: AUC (0-24)): 420 ± 69.3 ng·h/mL
AUC(0-t) ([3]; male, SD, rat, plasma, po, 200 mg/kg, rat, 200 mpk po, Formulation Example 2, read-out: AUC(0-t)): 420 ± 69.3 ng·h/mL
bioavailability ([3]; male, SD, rat, plasma, po, Formulation Example 2, dose not given): 1.4%
AUC_% Extrap (obs) ([3]; rat, 1 mpk i.v, Formulation Example 1): 1.8 ± 0.5%
AUC_% Extrap (obs) ([3]; rat, 10 mpk po, Formulation Example 5): 7.0 ± 5.2%
absorption after oral administration (in words) ([3]; rat, 200 mpk po, 0.5% CMC and about 1% Tween-80): absorbed rapidly in vivo after oral administration
AUC_% Extrap (obs) ([3]; rat, 200 mpk po, Formulation Example 2): 1.6 ± 0.7%
inhibitory activity against CYP2D6 (in words) (CYP2D6 [4]): little or very low inhibitory activity
inhibitory activity against CYP2C9 (in words) (CYP2C9 [5]): slight inhibitory activity
IC50 (CYP3A4; 3A4-midazolam IC50, substrate midazolam): > 50 µM
IC50 (CYP3A4; 3A4-testosterone IC50, substrate testosterone): 49.7 µM
IC50 (CYP2D6 [6]): > 50 µM
IC50 (CYP2C9 [7]): 5.54 µM

Reference: US10370364B1, “Substituted chromenes for treatment of fibrosis or non-alcoholic steatohepatitis” (OSTEONEUROGEN INC., priority 2018, dated 2019)
